Reference: ChEMBL document CHEMBL1201862, “PubChem BioAssay data set” (2004)
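Cultured in 96-well plates, cells were exposed to test compound for 48 hours across five concentrations. Abbreviation: GI50, concentration required for 50% inhibition of growth.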 Calls of active or inactive are those of the source. No stated cut-off is given here; in the data, active = GI50 up to about 1.1 µM and inactive = higher.

Assays:
Test in all cases: NCI anticancer screen, dose series, 48 h
SNB-19 = test system: SNB-19
SN12C = test system: SN12C
UACC-257 = test system: UACC-257
SR = test system: SR
HCT-116 = test system: HCT-116
NCI-H23 = test system: NCI-H23
SK-MEL-2 = test system: SK-MEL-2
NCI-H460 = test system: NCI-H460
OVCAR-3 = test system: OVCAR-3
OVCAR-5 = test system: OVCAR-5
HOP-62 = test system: HOP-62
SK-MEL-5 = test system: SK-MEL-5
EKVX = test system: EKVX
OVCAR-8 = test system: OVCAR-8
KM12 = test system: KM12
HCT-15 = test system: HCT-15
RXF 393 = test system: RXF 393
HOP-92 = test system: HOP-92
NCI/ADR-RES = test system: NCI/ADR-RES
CCRF-CEM = test system: CCRF-CEM

| SMILES | GI50 (SNB-19) | GI50 (SN12C) | GI50 (UACC-257) | GI50 (SR) | GI50 (HCT-116) | GI50 (NCI-H23) | GI50 (SK-MEL-2) | GI50 (NCI-H460) | GI50 (OVCAR-3) | GI50 (OVCAR-5) | GI50 (HOP-62) | GI50 (SK-MEL-5) | GI50 (EKVX) | GI50 (OVCAR-8) | GI50 (KM12) | GI50 (HCT-15) [µM] | GI50 (RXF 393) | GI50 (HOP-92) | GI50 (NCI/ADR-RES) | GI50 (CCRF-CEM) |
| --- | --- | --- | --- | --- | --- | --- | --- | --- | --- | --- | --- | --- | --- | --- | --- | --- | --- | --- | --- | --- |
| COc1cc2nncc(SCc3ccc(Cl)c(Cl)c3)c2cc1OC | 45.9 µM (inactive) | > 100 µM (inactive) | > 56.4 µM (inactive) | > 100 µM (inactive) | > 100 µM (inactive) | > 100 µM (inactive) | > 100 µM (inactive) | > 72.3 µM (inactive) | > 100 µM (inactive) | 98.4 µM (inactive) | 32.3 µM (inactive) | > 100 µM (inactive) | > 100 µM (inactive) | > 100 µM (inactive) | > 62.7 µM (inactive) | > 31.3 | 35.3 µM (inactive) | > 45.8 µM (inactive) | > 100 µM (inactive) | > 100 µM (inactive) |
| Cn1c(=O)c2c(nc3n2CCCC(=O)N3CCCCl)n(C)c1=O | > 100 µM (inactive) | > 100 µM (inactive) | > 100 µM (inactive) | > 100 µM (inactive) | > 100 µM (inactive) | > 100 µM (inactive) | > 100 µM (inactive) | > 100 µM (inactive) | > 100 µM (inactive) | > 100 µM (inactive) | > 100 µM (inactive) | > 100 µM (inactive) | > 100 µM (inactive) | > 100 µM (inactive) | > 100 µM (inactive) | > 100 | > 100 µM (inactive) | > 100 µM (inactive) | > 100 µM (inactive) | > 100 µM (inactive) |
| NC(=O)N/N=C1/CCC(O)CC1CC(=O)O (stereo not given) | > 100 µM (inactive) | > 100 µM (inactive) | > 100 µM (inactive) | 30.3 µM (inactive) | > 100 µM (inactive) | > 100 µM (inactive) | > 100 µM (inactive) | > 100 µM (inactive) | > 100 µM (inactive) | > 100 µM (inactive) | > 100 µM (inactive) | > 100 µM (inactive) | > 100 µM (inactive) | > 100 µM (inactive) | > 100 µM (inactive) | > 100 | > 100 µM (inactive) | > 100 µM (inactive) | > 100 µM (inactive) | 36.3 µM (inactive) |
| CC(C)NC(=O)OCc1c(COC(=O)NC(C)C)n(C)c2c1ccc1sccc12 | 20.8 µM (inactive) | 15.9 µM (inactive) | 15.8 µM (inactive) | 4.19 µM (inactive) | 11.1 µM (inactive) | 7.4 µM (inactive) | 16.4 µM (inactive) | 5.33 µM (inactive) | 15.7 µM (inactive) | 30.6 µM (inactive) | 20.9 µM (inactive) | 9.29 µM (inactive) | 11.2 µM (inactive) | > 100 µM (inactive) | 15 µM (inactive) | 16.9 | 12.2 µM (inactive) | 4.9 µM (inactive) | > 25.4 µM (inactive) | 10.2 µM (inactive) |
| COc1cc(C[C@@]2(C)[C@@H]3CCC[C@H](CO)[C@@]3(C)CC[C@@H]2C)c(Cl)c(OC)c1 | 18.6 µM (inactive) | 15.8 µM (inactive) | 18.7 µM (inactive) | 16 µM (inactive) | 12.2 µM (inactive) | 19.6 µM (inactive) | 16.8 µM (inactive) | 16.8 µM (inactive) | 15.3 µM (inactive) | 18.3 µM (inactive) | 17.1 µM (inactive) | 17 µM (inactive) | 14.3 µM (inactive) | 16 µM (inactive) | 18.2 µM (inactive) | 16.7 | 11.6 µM (inactive) | 14.5 µM (inactive) | 15.2 µM (inactive) | 29.4 µM (inactive) |
| N[C@@H]1C[C@H](N)c2c(Cl)sc(Cl)c21 | > 100 µM (inactive) | > 100 µM (inactive) | > 100 µM (inactive) | > 100 µM (inactive) | > 100 µM (inactive) | > 100 µM (inactive) | > 100 µM (inactive) | > 100 µM (inactive) | > 100 µM (inactive) | > 100 µM (inactive) | > 100 µM (inactive) | > 100 µM (inactive) | > 100 µM (inactive) | > 100 µM (inactive) | > 100 µM (inactive) | > 100 | > 100 µM (inactive) | > 100 µM (inactive) | > 100 µM (inactive) | > 100 µM (inactive) |
| C/C(=C/CO[Si](C)(C)C(C)(C)C)C(=O)N(C)c1ccccc1I | 16.6 µM (inactive) | 17.2 µM (inactive) | 13.3 µM (inactive) | 11.6 µM (inactive) | 13 µM (inactive) | 22 µM (inactive) | 15.7 µM (inactive) | 14.7 µM (inactive) | 15.9 µM (inactive) | 14.2 µM (inactive) | 18.4 µM (inactive) | 15.4 µM (inactive) | 15 µM (inactive) | 16.9 µM (inactive) | 16.5 µM (inactive) | 18.6 | 16.6 µM (inactive) | 10.5 µM (inactive) | 17.4 µM (inactive) | 15.2 µM (inactive) |
| CCOC(=O)/C(=C\c1ccnc2ccccc12)P(=O)(OCC)OCC | 3.65 µM (inactive) | 3.01 µM (inactive) | 3.73 µM (inactive) | 2.24 µM (inactive) | 1.99 µM (inactive) | 1.9 µM (inactive) | 2.06 µM (inactive) | 3.48 µM (inactive) | 1.64 µM (inactive) | 2.25 µM (inactive) | 1.93 µM (inactive) | 2.84 µM (inactive) | 4.65 µM (inactive) | 1.81 µM (inactive) | 4.01 µM (inactive) | 1.47 | 2.62 µM (inactive) | 2.49 µM (inactive) | 1.72 µM (inactive) | 0.366 µM (active) |
| CCC1(C(=O)OC(C)(C)C)OC12C(C)CCCC2C (stereo not given) | 48.9 µM (inactive) | 62.1 µM (inactive) | 31 µM (inactive) | 18.5 µM (inactive) | 52.8 µM (inactive) | 83.6 µM (inactive) | 44.8 µM (inactive) | 31.9 µM (inactive) | 34.3 µM (inactive) | > 100 µM (inactive) | 48.9 µM (inactive) | 33.3 µM (inactive) | 63.7 µM (inactive) | 78.7 µM (inactive) | 37.3 µM (inactive) | 36 | 19.8 µM (inactive) | 34.2 µM (inactive) | > 100 µM (inactive) | 18.7 µM (inactive) |
| CC1=CC(=O)/C(=C/NC(=S)c2ccncc2)C(=O)O1 | > 100 µM (inactive) | > 100 µM (inactive) | > 100 µM (inactive) | > 100 µM (inactive) | > 100 µM (inactive) | > 100 µM (inactive) | > 100 µM (inactive) | > 100 µM (inactive) | > 100 µM (inactive) | > 100 µM (inactive) | > 100 µM (inactive) | > 100 µM (inactive) | 46.7 µM (inactive) | > 100 µM (inactive) | > 100 µM (inactive) | > 100 | > 100 µM (inactive) | > 100 µM (inactive) | > 100 µM (inactive) | > 100 µM (inactive) |
| O=C1CCSSCCC(=O)NCCN1 | > 100 µM (inactive) | > 100 µM (inactive) | > 100 µM (inactive) | 91.2 µM (inactive) | > 100 µM (inactive) | > 100 µM (inactive) | > 100 µM (inactive) | > 100 µM (inactive) | > 100 µM (inactive) | > 100 µM (inactive) | > 100 µM (inactive) | > 100 µM (inactive) | > 100 µM (inactive) | > 100 µM (inactive) | > 100 µM (inactive) | > 100 | > 100 µM (inactive) | > 100 µM (inactive) | > 100 µM (inactive) | > 100 µM (inactive) |
| CSC(=S)OC1CC(n2cnc3c(NC(=O)c4ccccc4)ncnc32)OC1CO[Si](C)(C)C(C)(C)C (stereo not given) | 36.7 µM (inactive) | 14.4 µM (inactive) | 14.7 µM (inactive) | 11 µM (inactive) | 7.82 µM (inactive) | 13.2 µM (inactive) | 16.2 µM (inactive) | 11.1 µM (inactive) | 11 µM (inactive) | 49.4 µM (inactive) | 28.6 µM (inactive) | 5.45 µM (inactive) | 25.1 µM (inactive) | 13.3 µM (inactive) | 5.6 µM (inactive) | 13.2 | 4.35 µM (inactive) | 13.9 µM (inactive) | 9.02 µM (inactive) | 3.5 µM (inactive) |
| O=C1C(c2ccc([N+](=O)[O-])cc2)=C(Cl)C(=O)c2c(O)cccc21 | 22.5 µM (inactive) | 22.3 µM (inactive) | 18.4 µM (inactive) | > 100 µM (inactive) | 27.9 µM (inactive) | 18.1 µM (inactive) | 17.9 µM (inactive) | 52.8 µM (inactive) | 17.7 µM (inactive) | 40.7 µM (inactive) | 34.4 µM (inactive) | 23.4 µM (inactive) | 20.5 µM (inactive) | 27.5 µM (inactive) | 25.6 µM (inactive) | 25.5 | 14.7 µM (inactive) | 19 µM (inactive) | 28.4 µM (inactive) | 4.56 µM (inactive) |
| O=S(=O)(O)c1cc(/N=[N+](\[O-])c2cc(S(=O)(=O)O)c3ccccc3c2)cc2ccccc12 | 46.7 µM (inactive) | 23.6 µM (inactive) | 51.1 µM (inactive) | 38.5 µM (inactive) | > 100 µM (inactive) | 25.5 µM (inactive) | 24.7 µM (inactive) | > 100 µM (inactive) | 12.4 µM (inactive) | 32.5 µM (inactive) | 48 µM (inactive) | 17.9 µM (inactive) | 39.4 µM (inactive) | > 100 µM (inactive) | > 100 µM (inactive) | > 100 | 43.5 µM (inactive) | > 100 µM (inactive) | > 100 µM (inactive) | 29.7 µM (inactive) |
